Data taken from patent publication US9708314B2, “Heterocyclic amide compound” (NISSAN CHEMICAL INDUSTRIES, LTD., priority 2013, dated 2017).

Assays:
Assay type in all cases: in vivo
Digitaria ciliaris = assay: Test Example 4: herbicidal effect by application to foliage (diluvial soil, plastic box); settings: application to foliage, application herbicide amount 320 g/ha
Summary of the method: (§1)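 Greenhouse plants (25° C. to 30° C., 14 d, diluvial soil) receive a foliar spray of water-diluted emulsifiable formulation at defined g/ha. Grading after 3 weeks uses a six-step herbicidal-ratio scale, with 4 covering 70% to <90% and 1 covering 5% to <20%.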

Veronica persica = assay: as above; settings: application to foliage, application herbicide amount 320 g/ha
Summary of the method: as §1

Abutilon theophrasti = assay: as above; settings: application to foliage, application herbicide amount 320 g/ha
Summary of the method: as §1

Apera spica-venti. = assay: as above; settings: application to foliage, application herbicide amount 320 g/ha
Summary of the method: as §1

Avena fatua = assay: as above; settings: application to foliage, application herbicide amount 320 g/ha
Summary of the method: as §1

[1] = tested on: Echinochloa crus-galli var. crus-galli; assay: as above; settings: application to foliage, application herbicide amount 320 g/ha
Summary of the method: as §1

Setaria viridis = assay: as above; settings: application to foliage, application herbicide amount 320 g/ha
Summary of the method: as §1

Chenopodium album = assay: as above; settings: application to foliage, application herbicide amount 320 g/ha
Summary of the method: as §1

Galium spurium = assay: as above; settings: application to foliage, application herbicide amount 320 g/ha
Summary of the method: as §1

Alopecurus myosuroides = assay: as above; settings: application to foliage, application herbicide amount 320 g/ha
Summary of the method: as §1

Lolium multiflorum Lam. = assay: as above; settings: application to foliage, application herbicide amount 320 g/ha
Summary of the method: as §1

[2] = tested on: directly sowed Oryza sativa; assay: Test Example 3: effect on crop by application to foliage (Wagner pot, water depth 0.1-0.5 cm); settings: Nineteenth Table
Summary of the method: (§2)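 Grading uses six bands of herbicidal ratio, from 0 (≤5%, almost no effect) to 5 (≥90%, almost completely withered). Treatment was a stem-and-leaf spray of diluted emulsion at a fixed g/ha on 14-day-old plants; evaluation after three weeks.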

Leptochloa chinensis = assay: Test Example 3: herbicidal effect by application to foliage (Wagner pot, water depth 0.1-0.5 cm); settings: Nineteenth Table
Summary of the method: as §2

[3] = tested on: Echinochloa crus-galli var. crus-galli; assay: as above; settings: Nineteenth Table
Summary of the method: as §2

Cyperus difformis = assay: as above; settings: Nineteenth Table
Summary of the method: as §2

[4] = application herbicide amount 400 g/ha
[5] = application herbicide amount 320 g/ha

SMILES | F (Digitaria ciliaris) herbicidal effect (Digitaria ciliaris) | R (Veronica persica) herbicidal effect (Veronica persica) | M (Abutilon theophrasti) herbicidal effect (Abutilon theophrasti) | L (Apera spica-venti.) herbicidal effect (Apera spica-venti.) | I (Avena fatua) herbicidal effect (Avena fatua) | H (Echinochloa crus-galli var. crus-galli) herbicidal effect [1] | G (Setaria viridis) herbicidal effect (Setaria viridis) | O (Chenopodium album) herbicidal effect (Chenopodium album) | Q (Galium spurium) herbicidal effect (Galium spurium) | J (Alopecurus myosuroides) herbicidal effect (Alopecurus myosuroides) | K (Lolium multiflorum Lam.) herbicidal effect (Lolium multiflorum Lam.) | b (directly sowed Oryza sativa) effect on crop grade [2, 4] | D (Leptochloa chinensis) herbicidal ratio grade (Leptochloa chinensis; [4]) | H (Echinochloa crus-galli var. crus-galli) herbicidal ratio grade [3, 4] | E (Cyperus difformis) herbicidal ratio grade (Cyperus difformis; [4]) | b (directly sowed Oryza sativa) effect on crop grade [2, 5] | D (Leptochloa chinensis) herbicidal ratio grade (Leptochloa chinensis; [5]) | H (Echinochloa crus-galli var. crus-galli) herbicidal ratio grade [3, 5] | E (Cyperus difformis) herbicidal ratio grade (Cyperus difformis; [5])
CCC(CC)c1nnc2c(C(=O)Nc3nnc(C)o3)ccc(C(F)(F)F)n12 [1-011] | 5 (Herbicidal ratio of 90% or more (almost completely withered)) | 5 (Herbicidal ratio of 90% or more (almost completely withered)) | 5 (Herbicidal ratio of 90% or more (almost completely withered)) | 2 (Herbicidal ratio of 20% or more and less than 40%) | 1 (Herbicidal ratio of 5% or more and less than 20%) | 5 (Herbicidal ratio of 90% or more (almost completely withered)) | 4 (Herbicidal ratio of 70% or more and less than 90%) | 5 (Herbicidal ratio of 90% or more (almost completely withered)) | 2 (Herbicidal ratio of 20% or more and less than 40%) | 1 (Herbicidal ratio of 5% or more and less than 20%) | 1 (Herbicidal ratio of 5% or more and less than 20%) | 0 (Herbicidal ratio of 5% or less (almost no effect)) | 5 (Herbicidal ratio of 90% or more (almost completely withered)) | 5 (Herbicidal ratio of 90% or more (almost completely withered)) | 5 (Herbicidal ratio of 90% or more (almost completely withered)) |  |  |  | 
Cc1nnc(NC(=O)c2ccc(C(F)(F)F)n3c(Br)nnc23)o1 [1-014] | 3 (Herbicidal ratio of 40% or more and less than 70%) | 4 (Herbicidal ratio of 70% or more and less than 90%) | 4 (Herbicidal ratio of 70% or more and less than 90%) | 0 (Herbicidal ratio of 5% or less (almost no effect)) | 1 (Herbicidal ratio of 5% or more and less than 20%) | 4 (Herbicidal ratio of 70% or more and less than 90%) | 3 (Herbicidal ratio of 40% or more and less than 70%) | 5 (Herbicidal ratio of 90% or more (almost completely withered)) | 3 (Herbicidal ratio of 40% or more and less than 70%) | 1 (Herbicidal ratio of 5% or more and less than 20%) | 1 (Herbicidal ratio of 5% or more and less than 20%) |  |  |  |  | 1 (Herbicidal ratio of 5% or more and less than 20%) | 2 (Herbicidal ratio of 20% or more and less than 40%) | 5 (Herbicidal ratio of 90% or more (almost completely withered)) | 4 (Herbicidal ratio of 70% or more and less than 90%)
COCc1nnc2c(C(=O)Nc3nnc(C)o3)ccc(C(F)(F)F)n12 [1-015] | 4 (Herbicidal ratio of 70% or more and less than 90%) | 5 (Herbicidal ratio of 90% or more (almost completely withered)) | 5 (Herbicidal ratio of 90% or more (almost completely withered)) | 3 (Herbicidal ratio of 40% or more and less than 70%) | 3 (Herbicidal ratio of 40% or more and less than 70%) | 5 (Herbicidal ratio of 90% or more (almost completely withered)) | 3 (Herbicidal ratio of 40% or more and less than 70%) | 5 (Herbicidal ratio of 90% or more (almost completely withered)) | 3 (Herbicidal ratio of 40% or more and less than 70%) | 1 (Herbicidal ratio of 5% or more and less than 20%) | 1 (Herbicidal ratio of 5% or more and less than 20%) |  |  |  |  | 1 (Herbicidal ratio of 5% or more and less than 20%) | 5 (Herbicidal ratio of 90% or more (almost completely withered)) | 5 (Herbicidal ratio of 90% or more (almost completely withered)) | 4 (Herbicidal ratio of 70% or more and less than 90%)
COc1ccc(-c2nnc3c(C(=O)Nc4nnc(C)o4)ccc(C(F)(F)F)n23)cc1 [1-016] | 4 (Herbicidal ratio of 70% or more and less than 90%) | 4 (Herbicidal ratio of 70% or more and less than 90%) | 5 (Herbicidal ratio of 90% or more (almost completely withered)) | 0 (Herbicidal ratio of 5% or less (almost no effect)) | 1 (Herbicidal ratio of 5% or more and less than 20%) | 5 (Herbicidal ratio of 90% or more (almost completely withered)) | 2 (Herbicidal ratio of 20% or more and less than 40%) | 5 (Herbicidal ratio of 90% or more (almost completely withered)) | 2 (Herbicidal ratio of 20% or more and less than 40%) | 1 (Herbicidal ratio of 5% or more and less than 20%) | 1 (Herbicidal ratio of 5% or more and less than 20%) |  |  |  |  | 1 (Herbicidal ratio of 5% or more and less than 20%) | 5 (Herbicidal ratio of 90% or more (almost completely withered)) | 5 (Herbicidal ratio of 90% or more (almost completely withered)) | 5 (Herbicidal ratio of 90% or more (almost completely withered))
Cc1nnc(NC(=O)c2ccc(C(F)(F)F)n3c(-c4ccc(Cl)cc4)nnc23)o1 [1-017] | 3 (Herbicidal ratio of 40% or more and less than 70%) | 4 (Herbicidal ratio of 70% or more and less than 90%) | 5 (Herbicidal ratio of 90% or more (almost completely withered)) | 0 (Herbicidal ratio of 5% or less (almost no effect)) | 0 (Herbicidal ratio of 5% or less (almost no effect)) | 5 (Herbicidal ratio of 90% or more (almost completely withered)) | 0 (Herbicidal ratio of 5% or less (almost no effect)) | 5 (Herbicidal ratio of 90% or more (almost completely withered)) | 0 (Herbicidal ratio of 5% or less (almost no effect)) | 0 (Herbicidal ratio of 5% or less (almost no effect)) | 0 (Herbicidal ratio of 5% or less (almost no effect)) |  |  |  |  | 0 (Herbicidal ratio of 5% or less (almost no effect)) | 3 (Herbicidal ratio of 40% or more and less than 70%) | 4 (Herbicidal ratio of 70% or more and less than 90%) | 4 (Herbicidal ratio of 70% or more and less than 90%)
